Experimental data as given in patent publication US5278174A, “Sigma binding site agents” (priority 1991, dated 1994).
Entries after “also recorded” stand apart in the source; their conditions may differ. Structures can show the parent of a compound that is named as a salt. Where two headings read alike, the source gives them in different places.

Assays:
sigma sites [1] = experiment: Sigma receptor binding assay, [3H]DTG; settings: 5 nM [3H]DTG; guinea pig whole brain; room temperature, 45 minutes; read-out: Receptor Potency Sigma DTG (IC50, nMol)
Method: (§1) Two selective sigma receptor ligands, [^3 H](+)-3-[3-hydroxyphenyl]-N-(1 propyl)piperidine [(+)-3-PPP] and [^3 H] Ditolylguanidine (DTG), were used to label sigma sites in brain tissue.
(§2) The tissue preparation and assay conditions employed when using either of these ligands were essentially the same. Frozen whole guinea pig brains (obtained from Pel-Freez, Rogers, Ariz.) were homogenized in 10 volumes of ice-cold 0.32M sucrose. The resulting pellet was resuspended in 10 volumes of ice-cold 50 mM Tris-HCl (pH 7.4), incubated at 37 ° C. for 30 minutes, and centrifuged at 22,000 × g for 20 minutes. The final tissue suspension was made in 50 mM Tris-HCl (pH 7.4) to a concentration of 20 mg original wet weight/mL. 800 μL of tissue suspension was added to tubes containing 5 nM [^3 H] DTG or 4 nM [^3 H] […] The final assay volume was 1 mL. The assay tubes were gently vortexed, and the binding reaction was carried out for 45 minutes at room temperature. The reaction was terminated by rapid filtration over Whatman GF/B glass fiber filters, which were then rinsed 3x with 5 mL of 50 mM Tris-HCl. Filter bound radioactivity was quantified using liquid scintillation spectrometry.

[2] = Reversal of Amphetamine-Induced Hyperlocomotion; format: in vivo; settings: Mus musculus, ip, read-out: Induced Locomotion Amphetamine (minimally effective dose, MED)
Description: Opto-varimex locomotor monitors (Columbus Instruments, Columbus, Ohio) were used to assess locomotor activity. The monitors consist of a 37×37 cm square plexiglass open field surrounded by an outer enclosure housing a 15×15 array of infrared photobeams. Placement of the mouse in the open field interrupts one or more beams. Movement is detected by successive interruption of more than one beam (setting: box size - 1). The monitors were placed on separate shelves in a dark test room. An IBM compatible computer (Compaq) monitored beam interruptions and calculated indices of locomotor activity (distance travelled, time ambulating) and stereotype behavior (number of small movements, time in stereotypy or small movements). Because the dose of amphetamine in these studies was too low to produce selective increases in stereotyped behavior, distance travelled was the primary dependent variable.

D2 [3] = target: T1, D2 (Rattus norvegicus, UniProt P61169); experiment: Dopamine receptor binding, [3H]sulpiride; settings: 3 nM [3H]sulpiride; rat striata; 60 minutes; read-out: Receptor Potency D2 (Ki, nMol)
T1 construct: Rat striata were homogenized; from tissue; host or cells: rat striatum membranes
Method: Dopamine receptor binding was determined using [^3 H] sulpiride. Rat striata were homogenized in 20 volumes of ice-cold 50 mM Tris-HCl (pH 7.5), and the resulting homogenate was centrifuged at 48,000 × g for 10 minutes. The resulting pellet was resuspended in the original volume of 50 mM Tris HCl and centrifuged as previously described. […] The filters were then washed 3 × with 5 mL of 50 mM Tris-HCl containing 100 mM NaCl, and filter bound radioactivity was quantified using liquid scintillation spectrometry.

[4] = Induction of haloperidol-like catalepsy; format: in vivo, mouse; settings: for TD50 at 0.5 h: mouse, in vivo
Description: […]. At the time of the test the front paws of the mouse were placed on a 6 mm diameter rod which was mounted between the side walls of the apparatus, 39 mm above the floor. Gentle pressure was applied from the forefinger to immobilize the animal, with its back in a slightly arched (concave) position. The experimenter then released the mouse and recorded the latency to recover normal posture, as defined by return of at least one forepaw to the floor or placement of one hindlimb on the bar. […] TD50 values for lead compounds and reference compounds were confirmed in side-by-side studies by an experimenter blind to treatment conditions.

[5] = cited from earlier work
[6] = Reversal of Phencyclidine-Induced Hyperlocomotion; format: in vivo, mouse; settings: for minimal effective dose: Mus musculus, read-out: Induced Locomotion PCP (minimally effective dose, MED)
Description: Opto-varimex locomotor monitors (Columbus Instruments, Columbus, Ohio) were used to assess locomotor activity. The monitors consist of a 37×37 cm square plexiglass open field surrounded by an outer enclosure housing a 15×15 array of infrared photobeams. Placement of the mouse in the open field interrupts one or more beams. Movement is detected by successive interruption of more than one beam (setting: box size - 1). The monitors were placed on separate shelves in a dark test room. An IBM compatible computer (Compaq) monitored beam interruptions and calculated indices of locomotor activity (distance travelled, time ambulating) and stereotype behavior (number of small movements, time in stereotypy or small movements).
Male CFl mice (25°-30 g) were obtained from Harlan Sprague Dawley (Indianapolis, (N) and group-housed with free access to food and water for at least four days prior to testing. All tests took place during the light period of a 12:12 hour light-dark cycle. Each daily test consisted of one group of mice receiving a vehicle injection and an injection of amphetamine as the agonist. One group received two vehicle injections, and one or more groups received test compound plus amphetamine. Test compounds or the appropriate vehicles were administered 20 minutes prior to the locomotor test in studies using an intraperitoneal (i.p.) route of administration with mice, 30 minutes prior to test session for studies using an i.p. route of administration to rats, 45 minutes prior to the test session for studies using an oral (p.o.) route of administration with mice and 55 minutes prior to the locomotor test for studies using a p.o. route of administration to rats.
The procedure and data analysis were identical to that reported above for reversal of amphetamine hyperlocomotion with the exception that 3 mg/kg phencyclidine was injected in place of amphetamine 10 minutes prior to the test session.

sigma sites [7] = target: T2, sigma sites (Cavia porcellus, UniProt Q60492); experiment: Sigma receptor binding assay, [3H](+)-3-PPP; settings: 4 nM [3H](+)-3-PPP; guinea pig whole brain; room temperature, 45 minutes; read-out: Receptor Potency Sigma PPP (IC50, nMol)
T2 construct: Frozen whole guinea pig brains; tissue Pel-Freez, Rogers, Ariz; host or cells: whole guinea pig brain membranes
Method: as §1, §2

[8] = background statement; SK&F 10047, PCP, amphetamine; cited from earlier work
sigma binding sites = settings: background statement; cited from earlier work
D2 [9] = settings: background statement; cited from earlier work
[10] = clinical trials; cited from earlier work
[11] = amphetamine 1.5 mg/kg i.p., mice, NE = no effect to dose shown
[12] = mice, 30 minutes after injection, NE = no effect to dose shown
[13] = phencyclidine 3 mg/kg, mice, NE = no effect to dose shown
[14] = mice, 30 minutes after injection, NE = no effect to dose shown, read-out: Catalepsy (TD50)

T2 sequence (Q60492 whole entry): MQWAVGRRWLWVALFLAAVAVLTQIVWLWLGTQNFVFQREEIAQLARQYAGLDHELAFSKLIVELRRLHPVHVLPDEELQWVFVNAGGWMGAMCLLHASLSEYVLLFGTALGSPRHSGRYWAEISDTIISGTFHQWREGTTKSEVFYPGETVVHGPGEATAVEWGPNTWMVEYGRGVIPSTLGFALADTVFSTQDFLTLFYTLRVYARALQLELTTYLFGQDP
T1 sequence (P61169 whole entry): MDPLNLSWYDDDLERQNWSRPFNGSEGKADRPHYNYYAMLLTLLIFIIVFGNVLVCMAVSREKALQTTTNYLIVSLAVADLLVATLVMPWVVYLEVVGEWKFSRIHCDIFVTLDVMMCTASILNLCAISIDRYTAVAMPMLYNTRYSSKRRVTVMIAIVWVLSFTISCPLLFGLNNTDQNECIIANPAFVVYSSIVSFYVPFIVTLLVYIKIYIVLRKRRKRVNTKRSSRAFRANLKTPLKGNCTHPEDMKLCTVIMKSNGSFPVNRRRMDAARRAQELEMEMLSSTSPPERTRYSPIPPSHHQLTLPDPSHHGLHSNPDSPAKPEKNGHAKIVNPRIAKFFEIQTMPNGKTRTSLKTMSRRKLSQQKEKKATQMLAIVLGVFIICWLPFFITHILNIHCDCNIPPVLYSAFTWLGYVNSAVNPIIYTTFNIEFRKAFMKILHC

Structure (SMILES) | IC50 (sigma sites [1]) [nM] | minimal effective dose [2, 11] [mg/kg] | Ki (D2 [3]) [nM] | minimal effective dose [2] [mg/kg] | IC50 (sigma sites [7]) [nM] | further results
OC(CCCN1CCN(c2ncc(F)cn2)CC1)c1ccc(F)cc1 (stereo not drawn) [BMY14802, reference compound] | 237 | 15 | 3000 |  |  | 
CN1CCN(C2=Nc3cc(Cl)ccc3Nc3ccccc32)CC1 [Clozapine, reference compound] |  | 1 |  |  |  | Catalepsy (TD50) [4, 12]: NE (4); extrapyramidal side effects ([5]; background statement): relatively free of extrapyramidal side effects; agranulocytosis ([5]; chronic administration): produces agranulocytosis upon chronic administration
CN(C)CCCCCCOc1ccc2oc(-c3ccccc3)cc(=O)c2c1 [Example 4, 6-[6-Dimethylamino)hexoxy1-2-phenyl-4H-1-benzopyran-4-one hydrochloride] | 432 |  | 5550 | 30 | 335 | Induced Locomotion PCP (minimally effective dose, MED) [6, 13]: NE (30); TD50 at 0.5 h [4, 14]: 38 mg/kg
O=c1cc(-c2ccccc2)oc2ccc(OCCCCCCN3CCC(O)CC3)cc12 [Example 6, 6-6(4-hydroxypiperidinyl)hexoxy]-2-phenyl-4H-1-benzopyran-4-one hydrochloride] | 100 | 5 | 3630 |  | 124 | minimal effective dose [6, 13]: 15 mg/kg; TD50 at 0.5 h [4]: 61 mg/kg
O=c1cc(C2CCCCC2)oc2ccc(OCCCCCCN3CCC(O)CC3)cc12 [Example 26, 2-Cyclohexyl-6-[6-4-hydroxypiperidinyl)hexoxy]-4H-1-benzopyran-4-one hydrochloride] | 88 | 20 | 25000 |  | 46 | TD50 at 0.5 h [4]: 50 mg/kg
O=c1cc(-c2ccccc2)oc2ccc(OCCCCCCN3CCCCC3)cc12 [Example 28, 2-Phenyl-6-(6-piperidinylhexoxy)-4H-1-benzopyran-4-one hydrochloride] |  | 20 | 4440 |  | 54 | minimal effective dose [6, 13]: 30 mg/kg; TD50 at 0.5 h [4, 14]: < 30 mg/kg
O=c1cc(-c2ccccc2)oc2ccc(OCCCCCCN3CCOCC3)cc12 [Example 29, 6-(6-Morpholinylhexoxy)-2-phenyl-4H-1-benzopyran-4-one hydrochloride] |  |  | 18700 | 10 |  | TD50 at 0.5 h [4, 14]: 38 mg/kg
O=c1cc(C2CCCCC2)oc2ccc(OCCCCCCN3CCCCC3)cc12 [Example 34, 2-Cyclohexyl-6-(piperidinylhexoxy)-4H-1-benzopyran-4-one hydrochloride] |  | 10 |  |  | 32 | TD50 at 0.5 h [4]: 30 mg/kg
O=c1cc(-c2ccccc2)oc2cc(OCCCCCCN3CCC(O)CC3)ccc12 [Example 37, 7-[6-(4-Hydroxypiperidinyl)hexoxy]-2-phenyl-4H-1-benzopyran-4-one] |  |  |  | 30 | 70 | 
Cc1c(-c2ccccc2)oc2ccc(OCCCCCCN3CCC(O)CC3)cc2c1=O [Example 39, 6-[6-(4-Hydroxypiperidinyl)hexoxy]-3-methyl-2-phenyl-4H-1-benzopyran-4-one hydrochloride] |  | 25 |  |  |  | Catalepsy (TD50) [4, 12]: NE (250)
O=c1cc(-c2ccccc2Cl)oc2ccc(OCCCCCCN3CCC(O)CC3)cc12 [Example 49, 2-(2-Chlorophenyl)-6-(6-(4-hydroxypiperidinyl)hexoxy)-4H-1-benzopyran-4-onehydrochloride] | 47 |  | 4050 | 30 | 29 | 
O=C(CCCN1CCC(O)(c2ccc(Cl)cc2)CC1)c1ccc(F)cc1 [Haloperidol, reference compound] |  |  |  | 0.075 |  | minimal effective dose [6]: 0.15 mg/kg; TD50 at 0.5 h [4, 14]: 0.14 mg/kg; reversal of stimulant and psychotomimetic effects [8]: antagonize the stimulant/psychotomimetic effects of the dopamine agonist, amphetamine, and presumed sigma agonists such as PCP; also recorded: reverses the stimulant and psychotomimetic effects of SK&F 10047 and PCP; displacement of [3H]DTG and [3H](+)-3-PPP from sigma sites (sigma binding sites): displace [^3 H]DTG and [^3 H](+)-3-PPP from sigma sites
c1ccc(C2(N3CCCCC3)CCCCC2)cc1 [PCP, phencyclidine] |  |  |  |  |  | displacement of [3H]DTG and [3H](+)-3-PPP from sigma sites (sigma binding sites): displace [^3 H]DTG and [^3 H](+)-3-PPP from sigma sites
CCN1CCC[C@H]1CNC(=O)c1c(OC)ccc(Br)c1OC [Remoxipride] |  |  |  |  |  | D2 blocking potency (D2 [9]): significant D2 blocking potency
C[C@@H]1CN(CCCn2c3ccccc3c3ccccc32)C[C@H](C)N1 [Rimcazole, reference compound] | 1620 |  | 22500 | 20 |  | effectiveness in treating schizophrenia [10]: some effectiveness in treating schizophrenia; seizures [10]: induce seizures; minimal effective dose [6]: > 20 mg/kg; potency at sigma sites (sigma binding sites): only moderately potent at sigma sites
